How the values were obtained:
DLK = DLK (Homo sapiens (Human), UniProt Q12852); test: DLK biochemical assay (TR-FRET, MKK7 phosphorylation)
Method: DLK assay is a biochemical assay format designed to screen for inhibitors of DLK. Enzymatic activity of DLK was measured by monitoring phosphorylation of the physiological substrate MKK7 (MAP2K7, Dual specificity mitogen-activated protein kinase kinase 7). Phosphorylation was detected by a TR-FRET system whereby His-tagged MKK7 was labeled by a XL665-labeled anti-His antibody (FRET acceptor, emission 665 nm). DLK phosphorylates MKK7 at T275/S277, which was detected by an Eu-labeled anti-phospho-MKK7 (T275/S277) antibody (F RET donor, excitation 340 nm). Phosphorylation of MKK7 results in an increased TR-FRET signal (Ratio XL665-channel/Eu-channel) and inhibition of enzymatic activity of DLK decreases the TR-FRET signal.
Assay Protocol for 1536 MTP format: test compounds were predispensed (60 nl) in test plates; +3 μl DLK solution (10 nM DLK, catalytic domain, Carna Biosiences, 0.6 mM DTT in assay buffer); +2 μl substrate solution (15 nM MKK7, LDB; 60 μM ATP; 0.4 mM DTT in assay buffer); 90 min incubation at RT; +2 μl detection mix (5 nM XL665-labeled anti-His antibody, Cisbio; 0.1 nM Eu-labeled anti-phospho-MKK7 (T275/S277), Cisbio/Millipore in detection buffer); 16 h incubation at 37° C.; endpoint measurement BMG (HTRF).
Assay Protocol for 384 low volume MTP format: 1 μl of test compounds were pipetted into test plate; +5 μl DLK solution (10 nM DLK, catalytic domain, Carna Biosiences in assay buffer); +5 μl substrate solution (15 nM MKK7, LDB; 60 μM ATP, in assay buffer); 90 min incubation at RT; +9 μl detection mix (20 nM XL665-labeled anti-His antibody, Cisbio; 0.4 nM Eu-labeled anti-phospho-MKK7 (T275/S277), Cisbio/Millipore in detection buffer); 16 h incubation at 4° C.; endpoint measurement BMG (HTRF).
(§1) All indicated concentrations final concentrations.
Assay buffer (384 format): 50 mM Hepes pH 7.5, 10 mM MgCl2, 1 mM EGTA, 1 mM DTT, 0,01% Triton X-100, 0.01% BSA, 1:500 Smart Block.
(§2) Detection buffer: 25 mM Tris/HCl pH 7.5, 100 mM EDTA, 100 mM NaCl, 200 mM KF, 0.01% Tween 20, 1:500 Smart Block.

LZK = LZK (Homo sapiens (Human), UniProt O43283); test: LZK biochemical assay (TR-FRET, MKK7 phosphorylation)
LZK, sequence (O43283 168-409): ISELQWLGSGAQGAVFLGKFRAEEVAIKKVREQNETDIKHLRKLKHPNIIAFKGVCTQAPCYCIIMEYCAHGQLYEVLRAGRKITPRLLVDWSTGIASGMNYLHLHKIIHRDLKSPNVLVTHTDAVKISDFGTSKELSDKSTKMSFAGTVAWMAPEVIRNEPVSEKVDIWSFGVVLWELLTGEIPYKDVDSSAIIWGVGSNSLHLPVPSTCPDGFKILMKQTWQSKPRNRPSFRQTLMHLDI
Method: LZK assay is a biochemical assay format designed to screen for inhibitors of LZK. Enzymatic activity of LZK was measured by monitoring phosphorylation of the physiological substrate MKK7 (MAP2K7, Dual specificity mitogen-activated protein kinase kinase 7). Phosphorylation was detected by a TR-FRET system whereby His-tagged MKK7 was labeled by a XL665-labeled anti-His antibody (FRET acceptor, emission 665 nm). LZK phosphorylates MKK7 at T275/S277 which were detected by an Eu-labeled anti-phospho-MKK7 (T275/S277) antibody (FRET donor, excitation 340 nm). Phosphorylation of MKK7 results in an increased TR-FRET signal (Ratio XL665-channel/Eu-channel) and inhibition of enzymatic activity of LZK decreases the TR-FRET signal.
Assay Protocol for 384 low volume MTP format: 1 μl of test compound was pipetted into test plate; +5 μl LZK solution (10 nM LZK, catalytic domain, Carna Biosiences in assay buffer); +5 μl substrate solution (15 nM MKK7, LDB; 15 μM ATP, in assay buffer); 90 min incubation at RT; +5 μl detection mix (20 nM XL665-labeled anti-His antibody, Cisbio; 0.4 nM Eu-labeled anti-phospho-MKK7 (T275/S277), Cisbio/Millipore in detection buffer), 16 h incubation at 32° C.; endpoint measurement BMG (HTRF).
as §1
Assay buffer (384 format): 50 mM Hepes pH 7.5, 10 mM MgCl2, 1 mM EGTA, 1 mM DTT, 0.01% Triton X-100, 0.01% BSA, 1:500 Smart Block.
as §2

DLK, sequence (Q12852 1-520): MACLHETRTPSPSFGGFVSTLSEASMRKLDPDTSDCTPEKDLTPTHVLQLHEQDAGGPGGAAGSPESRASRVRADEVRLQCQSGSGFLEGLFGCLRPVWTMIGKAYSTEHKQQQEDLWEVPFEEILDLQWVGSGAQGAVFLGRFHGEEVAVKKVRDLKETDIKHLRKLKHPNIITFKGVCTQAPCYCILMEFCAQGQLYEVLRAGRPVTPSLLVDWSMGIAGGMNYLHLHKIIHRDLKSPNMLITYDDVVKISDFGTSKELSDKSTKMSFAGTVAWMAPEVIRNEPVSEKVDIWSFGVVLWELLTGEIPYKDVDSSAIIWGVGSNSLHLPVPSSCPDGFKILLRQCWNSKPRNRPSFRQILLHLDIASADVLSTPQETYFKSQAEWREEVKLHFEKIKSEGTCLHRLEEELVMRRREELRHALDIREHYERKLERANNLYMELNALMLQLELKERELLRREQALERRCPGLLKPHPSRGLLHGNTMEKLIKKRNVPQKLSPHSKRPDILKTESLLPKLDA

IC50 (DLK) [µM] | IC50 (LZK) [µM] | SMILES
1.07 | 9.6 | Nc1nc2ccc(-c3csc(C(=O)NCc4ccc(F)c(F)c4)c3)cn2n1 [Compound 212]
1.3 | 21 | Cn1ccnc1CNC(=O)c1cc(-c2ccc3nc(N)nn3c2)cs1 [Compound 241]
19 | > 30 | COc1cccc(CNC(=O)c2cc(-c3ccc4nc(N)nn4c3)c(C)s2)c1 [Compound 311]
1.1 | 3.7 | Nc1nc2cc(F)c(-c3csc(C(=O)NCc4ccc(F)cc4)c3)cn2n1 [Compound 300]
1.2 | 19 | COCCOc1cccc(CNC(=O)c2cc(-c3ccc4nc(N)nn4c3)cs2)c1 [Compound 292]
2.4 | 20 | Nc1nc2ccc(-c3csc(C(=O)Nc4ccccc4OC(F)F)c3)cn2n1 [Compound 288]
0.48 | 1.4 | Nc1nc2ccc(-c3csc(C(=O)NC(CO)c4ccc(F)cc4)c3)cn2n1 (stereo not drawn) [Compound 337]
1.5 | 17 | Cc1cn(C)nc1CNC(=O)c1cc(-c2ccc3nc(N)nn3c2)cs1 [Compound 243]
0.12 | 1.7 | CC[C@H](NC(=O)c1cc(-c2ccc3nc(N)nn3c2)cs1)c1ccc(F)cc1 [Compound 319]
1.8 | 19 | Cn1ccc(CNC(=O)c2cc(-c3ccc4nc(N)nn4c3)cs2)n1 [Compound 242]
0.3 | > 30 | Nc1nc2ccc(-c3csc(C(=O)NCc4cccc(OCC(F)(F)F)c4)c3)cn2n1 [Compound 204]
1.6 | 17 | COc1ccnc(CNC(=O)c2cc(-c3ccc4nc(N)nn4c3)cs2)c1 [Compound 256]
0.058 | 0.15 | CC(C)(C)NC(=O)c1cc(-c2csc(C(=O)NCc3ccc(F)cc3)c2)cn2nc(N)nc12 [Compound 15]
1.01 | 13 | COc1ccc(CNC(=O)c2cc(-c3ccc4nc(N)nn4c3)cs2)cc1 [Compound 203]
0.72 | 30 | Nc1nc2ccc(-c3csc(C(=O)NCCCc4ccccc4)c3)cn2n1 [Compound 215]
0.4 | 8.2 | Nc1nc2ccc(-c3csc(C(=O)NCc4ccc(CN5CCCC5=O)cc4)c3)cn2n1 [Compound 328]
1.1 | > 30 | Nc1nc2ccc(-c3csc(C(=O)NCc4cn5ccccc5n4)c3)cn2n1 [Compound 257]
0.23 | 12 | Nc1nc2ccc(-c3csc(C(=O)NCc4cccc(OC5CC5)c4)c3)cn2n1 [Compound 205]
1.85 | 18 | Nc1nc2ccc(-c3csc(C(=O)NCc4ncco4)c3)cn2n1 [Compound 239]
0.23 | 24 | Cc1ccc([C@H](C)NC(=O)c2cc(-c3ccc4nc(N)nn4c3)cs2)cc1 [Compound 349]
0.07 | 0.48 | NC(=O)c1cc(-c2csc(C(=O)NCc3ccc(F)cc3)c2)cn2nc(N)nc12 [Compound 42]
0.44 | 17 | Cc1cccc(C)c1NC(=O)c1cc(-c2ccc3nc(N)nn3c2)cs1 [Compound 233]

Second part, the molecule before the results:

SMILES | IC50 (DLK) [µM] | IC50 (LZK) [µM]
CC(C)NC(=O)c1cc(-c2csc(C(=O)N[C@@H](C)c3ccccc3)c2)cc2nc(N)nn12 [Compound 146] | 0.012 | 0.071
CC(NC(=O)c1cc(-c2csc(C(=O)N[C@@H](C)c3ccccc3)c2)cn2nc(N)nc12)C(F)(F)F (single isomer, unassigned) [Compound 72] | 0.089 | 6.2
Cc1nc(C(C)NC(=O)c2cc(-c3ccc4nc(N)nn4c3)cs2)sc1C (stereo not drawn) [Compound 334] | 0.4 | 5.8
C[C@H]1CCC[C@@H](NC(=O)c2cc(-c3ccc4nc(N)nn4c3)cs2)C1 (single isomer, unassigned) [Compound 165] | 0.88 | > 30
COc1cccc(CNC(=O)c2cc(-c3cc(C(F)(F)F)c4nc(N)nn4c3)cs2)c1 [Compound 380] | 1.1 | > 30
Nc1nc2ccc(-c3csc(C(=O)NCC4CCCOC4)c3)cn2n1 (stereo not drawn) [Compound 197] | 1.6 | > 30
CC[C@H](C)NC(=O)c1cc(-c2csc(C(=O)N[C@@H](C)c3ccccc3)c2)cn2nc(N)nc12 [Compound 88] | 0.0032 | 0.037
Nc1nc2c(C(=O)NC3CNC(=O)C3)cc(-c3csc(C(=O)NCc4ccccc4)c3)cn2n1 (stereo not drawn) [Compound 38] | 0.017 | 0.13
COc1cccc(CNC(=O)c2cc(-c3cc(C(=O)NC(C)(C)C)c4nc(N)nn4c3)cs2)c1 [Compound 13] | 0.034 | 0.14
C[C@H](NC(=O)c1cc(-c2ccc3nc(N)nn3c2)cs1)c1ccccc1 [Compound 323] | 0.164 | 2.95
Nc1nc2c(C(=O)N[C@H](CO)C(F)(F)F)cc(-c3csc(C(=O)NCc4ccc(F)cc4)c3)cn2n1 [Compound 111] | 0.044 | 0.29
Nc1nc2ccc(-c3csc(C(=O)NC4(c5ccc(F)cc5)CCC4)c3)cn2n1 [Compound 309] | 0.12 | 6.6
C[C@H](NC(=O)c1cc(-c2cc(C(=O)NC3CNC3)c3nc(N)nn3c2)cs1)c1ccc(F)cc1 [Compound 114] | 0.047 | 0.71
C[C@H](NC(=O)c1cc(-c2cc(C(F)(F)F)c3nc(N)nn3c2)cs1)c1ccccc1 [Compound 376] | 0.26 | 4.9
COc1cccc(CNC(=O)c2cc(-c3cc(C(=O)N(C)C)c4nc(N)nn4c3)cs2)c1 [Compound 2] | 18 | > 30
C[C@H](NC(=O)c1cc(-c2cc(F)c3nc(N)nn3c2)cs1)c1ccc(F)cc1 [Compound 383] | > 30 | > 30
Nc1nc2ccc(-c3csc(C(=O)NC4CCc5ccccc54)c3)cn2n1 (stereo not drawn) [Compound 307] | 0.15 | 4.5
COC[C@H](NC(=O)c1cc(-c2cc(C(=O)NC(C)C)c3nc(N)nn3c2)cs1)c1ccccc1 (stereo in doubt) [Compound 91] | 0.0033 | 0.048
C[C@H](NC(=O)c1cc(-c2cc(C(=O)NC3CCNC3)c3nc(N)nn3c2)cs1)c1ccccc1 (mixture of isomers) [Compound 34] | 0.055 | 0.88
CC(O)c1ccccc1NC(=O)c1cc(-c2ccc3nc(N)nn3c2)cs1 (stereo not drawn) [Compound 294] | 0.71 | > 30
C[C@@H](CO)NC(=O)c1cc(-c2csc(C(N)=O)c2)cn2nc(N)nc12 [Compound 86] | 0.36 | 1.1
Nc1nc2c(C(=O)NC3COC3)cc(-c3csc(C(=O)NCc4ccc(F)cc4)c3)cn2n1 [Compound 74] | 0.32 | 5.6
C[C@@H](CO)NC(=O)c1cc(-c2csc(C(=O)N(C)[C@@H](C)c3ccc(F)cc3)c2)cn2nc(N)nc12 [Compound 110] | 0.082 | 0.47
CC(C)NC(=O)c1cc(-c2csc(C(N)=O)c2)cn2nc(N)nc12 [Compound 85] | 0.36 | 0.9
CC(C)NC(=O)c1cc(-c2csc(C(=O)NCc3nc4ccccc4o3)c2)cn2nc(N)nc12 [Compound 35] | 0.032 | 0.12
CCNS(=O)(=O)c1cc(-c2csc(C(=O)N[C@@H](C)c3ccc(F)cc3)c2)cn2nc(N)nc12 [Compound 385] | 11 | > 30
